{"source": "patent US20220267728A1", "about": "“ALLOGENIC CAR-T CELL THERAPY” (TX MEDIC AB, priority 2019, published 2022)", "key": {"whole blood": {"system": "whole blood", "assay": "Human whole blood loop assay: ACT kaolin time and prothrombin/INR time (i-STAT cartridges)", "settings": "for Activated clotting time (ACT) / Prothrombin time (PT) / international normalized ration (INR): dextran sulfate 0.2 mg/ml, no CAR-T cells", "description": "The objective of this Example was to investigate dextran sulfate in a human whole blood loop assay in combination with CAR-T cells. Cellular activation and viability and blood status was assessed after incubation in the human whole loop system with dextran sulfate with and without CAR-T cells.\n(§1) Blood from healthy donors was taken in an open system and immediately mixed with test compounds (CD19-CAR T cells and dextran sulfate (Tikomed AB, Sweden, WO 2016/076780, referred to as IBsolvMIR in the figures). Autologous setting included CAR-T cells generated from the same donor that donated whole blood. In allogeneic setting, blood and CAR-T cells were not matched (from different donors). All materials in direct contact with whole blood were surface heparinized in accordance with the manufacturers protocol (Corline, Sweden). Whole blood (2 ml) was added to PVC-tubing, which, with a surface heparinized metal connector, formed a loop. The dextran sulfate (0.2 g/L) and CAR-T cells (0.5-5×10^6 cells) were added according to Table 1, and the loops were set to rotate on a wheel at 37° C. Blood aliquots were sampled, andeEthylenediaminetetraacetic acid (EDTA) was added to a final concentration of 10 mM to stop reactions at a given time-point. The automated hematology analyzer XP-300 or XN-350 (Sysmex) was used to assess blood cell count at different time points, while i-STAT cartridges (Abbott) were used to measure ACT kaolin time and prothrombin/INR time measurements."}, "C3a": {"system": "C3a", "assay": "Complement analysis (C3a) ELISA on plasma from whole blood loops", "set-up": "species or system human", "settings": "data not shown", "description": "The plasma samples were kept on ice, and plasma was collected by centrifugation at 2000×g at 4° C. for 20 minutes. The plasma was stored at −70° C. until the time of analysis. Complement analysis (C3a) was performed on plasma collected at various time points after assay start with ELISA kits from RayBiotech according to the manufacturers instructions. For experiments involving flow cytometry, blood samples were mixed with EDTA (final concentration of 10 mM), followed by the Fc block (BD Biosciences) and antibody master mix containing anti-human fluorochrome-labeled antibodies for surface staining (CD3, CD4, CD8, CD20, CD56, CD16, CD66b, CD14, BioLegend), including activation markers (CD107a, CD69, CD11b, Biolegend). Antibody master mix was incubated with whole blood for 30 min at 4° C., washed with PBS and analyzed using Cytoflex (Beckman Coulter)."}, "[1]": {"system": "T cell population (CD3+, CD4+, CD8+ T cells)", "assay": "Whole blood loop assay: flow cytometry of blood donor T cells (activation markers, viability)", "type": "cell-based, human", "settings": "groups with and without dextran sulfate; 60 min; FIGS. 3A to 3I", "text": "as §1, with “The automated hematology analyzer XP-300 or XN-350 (Sysmex) was used to assess blood cell count at different time points, while i-STAT cartridges (Abbott) were used to measure ACT kaolin time and prothrombin/INR time measurements.” left out\n(§2) The plasma samples were kept on ice, and plasma was collected by centrifugation at 2000×g at 4° C. for 20 minutes. […] Antibody master mix was incubated with whole blood for 30 min at 4° C., washed with PBS and analyzed using Cytoflex (Beckman Coulter)."}, "CAR-T cell population": {"system": "CAR-T cell population", "assay": "Whole blood loop assay: flow cytometry of CAR-T cell population (CAR marker, CD69, CD107a, viability)", "type": "cell-based, human", "description": "Peripheral blood mononuclear cells (PBMCs) were isolated from healthy donors using Lymphoprep (Progen), stored in −70° C. in freezing medium (10% dimethyl sulfoxide (DMSO), 90% fetal calf serum (FCS)) and cultured in RPMI-1640 supplemented with 10% FCS and 1% penicillin/streptomycin. The PBMCs were activated with 1 μg/ml OKT-3 (Biolegend) and 200 IU/ml IL-2 (Roche) for 1 day to selectively stimulate T cells. Retronectin plates (Takara) were prepare in advance (7 μg per well, overnight at 4° C.) and incubated twice with 500 μl concentrated CD19-CAR-encoding retrovirus (2G) or Mock retrovirus, previously described in Karlsson et al., Evaluation of Intracellular Signaling Downstream Chimeric Antigen Receptors, PLOS ONE 2015, 10(12):e0144787, for 30 min at 37° C. Activated cells were transduced with 3 ml concentrated CD19-CAR-encoding retrovirus or Mock retorvirus for 2 days at 37° C. in the presence of retronectin-coated plates and 100 IU IL-2. Cells were cultured with 100 IU/ml IL-2 and expanded for 2 weeks before analysis. For analysis of CD19-CAR expression, cells were stained with 0.5 μl of anti-CAR-Dylight649 (Jackson ImmunoResearch), washed with phosphate-buffered saline (PBS) and followed by surface labeling (CD3, CD8, CD4, TF). Flow cytometry analysis was performed using Cytoflex (Beckman Coulter). Cell count and cell viability was determined using trypan blue (T-20 Counter, Bio-Rad).\nas §1, with “The automated hematology analyzer XP-300 or XN-350 (Sysmex) was used to assess blood cell count at different time points, while i-STAT cartridges (Abbott) were used to measure ACT kaolin time and prothrombin/INR time measurements.” left out\nas §2"}, "[2]": {"system": "B cell population (CD19+)", "assay": "Whole blood loop assay: flow cytometry of B cells (count, CD69, CD107a)", "type": "cell-based, human", "text": "as §1, with “The automated hematology analyzer XP-300 or XN-350 (Sysmex) was used to assess blood cell count at different time points, while i-STAT cartridges (Abbott) were used to measure ACT kaolin time and prothrombin/INR time measurements.” left out\nas §2"}, "monocyte population": {"system": "monocyte population", "assay": "Whole blood loop assay: CD11b on monocytes by flow cytometry", "type": "cell-based, human", "settings": "addition of dextran sulfate to loops; FIG. 9A", "text": "as §1, with “The automated hematology analyzer XP-300 or XN-350 (Sysmex) was used to assess blood cell count at different time points, while i-STAT cartridges (Abbott) were used to measure ACT kaolin time and prothrombin/INR time measurements.” left out\nas §2"}, "granulocyte population": {"system": "granulocyte population", "assay": "Whole blood loop assay: CD11b on granulocytes by flow cytometry", "type": "cell-based, human", "settings": "addition of dextran sulfate to loops; FIG. 9B", "text": "as §1, with “The automated hematology analyzer XP-300 or XN-350 (Sysmex) was used to assess blood cell count at different time points, while i-STAT cartridges (Abbott) were used to measure ACT kaolin time and prothrombin/INR time measurements.” left out\nas §2"}, "[3]": {"settings": "allogenic donor, time point 60 min"}, "[4]": {"settings": "autologous donor, time point 10 min"}, "[5]": {"settings": "autologous donor, time point 60 min"}}, "data": [{"substance": "dextran sulfate", "values": [{"measurement": "coagulation measurements (ACT, PTT, INR)", "setting": "whole blood; Table 2 and Table 3, autologous and allogenic donor", "value": "rise in all coagulation measurements"}, {"measurement": "Activated clotting time (ACT)", "setting": "whole blood; [3]", "value": 356, "unit": "s"}, {"measurement": "Prothrombin time (PT)", "setting": "whole blood; [3]", "value": 30.7, "unit": "s"}, {"measurement": "international normalized ration (INR)", "setting": "whole blood; [3]", "value": 2.7}, {"measurement": "Activated clotting time (ACT)", "setting": "whole blood; [4]", "value": 485, "unit": "s"}, {"measurement": "Prothrombin time (PT)", "setting": "whole blood; [4]", "value": 16.5, "unit": "s"}, {"measurement": "international normalized ration (INR)", "setting": "whole blood; [4]", "value": 1.4}, {"measurement": "Prothrombin time (PT)", "setting": "whole blood; [5]", "value": 17.9, "unit": "s"}, {"measurement": "international normalized ration (INR)", "setting": "whole blood; [5]", "value": 1.5}, {"measurement": "C3a levels", "setting": "C3a; in co-administration with CAR-T cells", "value": "decreased levels of C3a"}, {"measurement": "C3a levels", "setting": "C3a; substance added alone, both donors", "value": "decreased levels of C3a"}, {"measurement": "viability and activation of T cell population (blood donors CD3+, CD4+, CD8+ T cells)", "setting": "[1]", "value": "similar"}, {"measurement": "percentage of cells positive for the CAR-T cell specific marker in the T cell population", "setting": "CAR-T cell population; allogenic donor, FIG. 4A", "value": "increased"}, {"measurement": "viability of the CAR-T cells", "setting": "CAR-T cell population; autologous donor, without or with dextran sulfate, FIG. 5C", "value": "~60", "unit": "%"}, {"measurement": "proportion of CD3+ CAR-T cells and CD8+ CAR-T cells, autologous versus allogenic groups", "setting": "CAR-T cell population; when dextran sulfate was added", "value": "more similar"}, {"measurement": "levels of activation markers (CD69, CD107a) in the allogenic CAR-T cell groups", "setting": "CAR-T cell population; with dextran sulfate, compared with autologous CAR-T cell groups, FIGS. 5A, 5B and 6", "value": "more similar to the levels of activation markers in the autologous CAR-T cell groups"}, {"measurement": "impact on CAR functionality", "setting": "[2]; from B cell count and activation pattern", "value": "did not have any negative impact"}, {"measurement": "B cell count and activation pattern", "setting": "[2]; samples with or without dextran sulfate", "value": "similar"}, {"measurement": "expression of activation marker CD11 b on monocytes", "setting": "monocyte population", "value": "decreased"}, {"measurement": "expression of activation marker CD11 b on granulocytes", "setting": "granulocyte population", "value": "decreased"}]}]}
